# Data from article PMC5347165, “Killing of Staphylococcus aureus and Salmonella enteritidis and neutralization of lipopolysaccharide by 17-residue bovine lactoferricins: improved activity of Trp/Ala-containing molecules” (Scientific Reports, 2017).
# Values joined by “and” are separate entries in the source; they are usually repeats but may differ in a detail not shown here. Identical values can stand only once.
# Columns and labels:
# S. aureus ATCC25923 [1] = assay: Outer membrane permeabilization, NPN uptake; assay type: cell-based, Staphylococcus aureus; conditions: 1×, 2× or 4 × MIC; HEPES buffer pH 7.2
# Procedure: (§1) The effects of Lfcin4 and Lfcin5 on the outer membrane of S. aureus ATCC25923 and S. enteritidis CVCC3377 were determined by measuring the uptake of NPN[44][45]. Mid-log phase cells were washed with sterile normal saline three times and suspended in 5 mM HEPES buffer (pH 7.2, containing 5 mM glucose) to an OD at 600 nm of 0.5. […] The relative fluorescence intensity was measured using an Infinite M200 PRO plate reader. The excitation and emission wavelengths were set at 328 and 438 nm, respectively. Treatment with PBS severed as a negative control, and treatment with ampicillin or colistin was used as a positive control.
# S. aureus ATCC25923 [2] = assay: Macromolecular synthesis, incorporation of radioactive precursors; assay type: cell-based, Staphylococcus aureus; conditions: 1 × MIC; 3H-glucosamine
# Procedure: The effects of each peptide on the incorporation of L-[methyl-^3H] thymidine, [5-^3H] uridine, D-[6-^3H(N)] glucosamine hydrochloride, and L-[3,4,5-^3H] leucine into DNA, RNA, peptidoglycans, and proteins were investigated in S. aureus ATCC25923. […] Radioactive precursors of ^3H-thymidine, ^3H-uridine, ^3H-leucine, and ^3H-glucosamine (40 μCi/ml) were added to cultures to measure macromolecular synthesis and incubated for 20 min at 37 °C. Cold 25% trichloroacetic acid (TCA) was added to the mixture and placed on ice for 30 min. After centrifugation, pellets were washed twice with 25% TCA, dried and counted with scintillation fluid on a MicroBeta 1450 scintillation counter (Perkin Elmer)[46].
# S. enteritidis CVCC3377 = assay: Cell surface hydrophobicity, hexadecane partitioning; assay type: cell-based, Salmonella enteritidis; conditions: peptide 1×, 2× or 4× MIC, 10 min 37 °C, increased from 9.43% (untreated) to this value, mean, n = 3
# Procedure: (§2) The effects of AMPs on the cell surface hydrophobicity of S. aureus ATCC25923 and S. enteritidis CVCC3377 were measured using the hexadecane partitioning method. Cells were grown to stationary phase in Mueller-Hinton broth at 37 °C, harvested by centrifugation at 5000 rpm for 4 min, washed twice with sterile normal saline, and suspended in 0.1 M KNO3 (pH 6.2) to an OD600 nm of 0.4. […] Sterile normal saline was used as a negative control, and the optical density at 600 nm was measured as OD0. Subsequently, a 1.2-ml cell suspension was mixed with 0.2 ml of hexadecane by vortexing for 1 min, and then, the mixture was incubated for 15 min. The OD600 nm value of the aqueous phase was determined as OD1. The hydrophobicity percentages were calculated by the following equation: hydrophobicity (%) = (1 − OD1/OD0) × 100%. All experiments were repeated three times.
# S. aureus ATCC25923 [3] = assay: as above; assay type: cell-based, Staphylococcus aureus; conditions: peptide 1×, 2× or 4× MIC, 10 min 37 °C, increased from 5.27% (untreated) to this value, mean, n = 3
# Procedure: as §2
# S. aureus ATCC25923 [4] = assay: Inner membrane permeabilization, PI staining by flow cytometry; assay type: cell-based, Staphylococcus aureus; conditions: 1 × MIC, 37 °C, untreated 0.04%
# Procedure: The permeabilization of the inner membrane was performed according to a previous report by Li et al. with slight modifications. […] Bacterial cells were then washed twice with PBS, fixed with 50 μg/ml PI and analyzed using a BD FACS Calibur Flow Cytometer (Franklin Lakes, New Jersey, USA). Data were analyzed using CellQuest Pro software (BD, USA).
# E. coli CVCC1515 = assay type: cell-based, Escherichia coli; conditions: microtiter broth dilution, 10^5 CFU/ml, 16‒18 h at 37 °C; representative of three independent experiments
# Procedure: (§3) The MIC values of LfcinB17-33 derivatives against bacteria were determined by the microtiter broth dilution method. Briefly, 10 μl of serially diluted aliquots of peptides were added to each well of 96-well microtiter plates, followed by the addition of 90 μl exponential phase bacteria (10^5 CFU/ml) and incubated for 16‒18 h at 37 °C.
# [5] = system: E. coli CICC21530 (serotype O157:H7); assay type: cell-based, Escherichia coli; conditions: microtiter broth dilution, 10^5 CFU/ml, 16‒18 h at 37 °C; representative of three independent experiments
# Procedure: as §3
# S. enteritidis CVCC337 = assay: Outer membrane permeabilization, NPN uptake; assay type: cell-based, Salmonella enteritidis; conditions: 1×, 2× or 4 × MIC; HEPES buffer pH 7.2
# Procedure: as §1
# LPS-induced lung injury = assay: LPS-induced lung injury, histology; assay type: in vivo, mouse (C57BL/6); conditions: 15 mg/kg i.p. 30 min after LPS 10 mg/kg
# Procedure: Thirty minutes after intraperitoneal injection of LPS (10 mg/kg of body weight in 0.2 ml), mice were intraperitoneally injected with Lfcin4, Lfcin5 or colistin (15 mg/kg of body weight in 0.2 ml). Mice were sacrificed at 8 h, 1 d, 4 d, and 7 d after LPS injection. The lungs were removed, washed with PBS and fixed in 4% paraformaldehyde at 4 °C for 24 h. After they were washed with PBS and dehydrated with a graded series of ethanol (75‒95%), the tissues were infiltrated with xylene and embedded in paraffin wax. Sections were cut, stained with hematoxylin and eosin and examined under a light microscope. Mice injected with LPS or only PBS served as positive or mock-treated controls, respectively.
# [6] = system: genomic DNA from S. enteritidis CVCC3377; assay: Gel retardation (EMSA) of genomic DNA; assay type: binding, Salmonella enteritidis; conditions: 0.7% agarose gel, 10 min 37 °C; ratios tested 0, 0.5, 1, 2.5, 5, 10 (w/w)
# Procedure: Genomic DNA was extracted from S. aureus ATCC25923, E. coli O157 and S. enteritidis CVCC3377 using a TIANamp Bacteria DNA Kit (TIANGEN Biotech Co., Ltd., Beijing). The gel retardation experiment was performed by mixing the bacterial DNA with different concentrations of Lfcin4 or Lfcin5 in 20 μl binding buffer (10 mM Tris-HCl, pH 8.0, 5% glycerol, 1 mM dithiothreitol, 1 mM EDTA, 20 mM KCl, and 50 μg/ml bovine serum albumin)[41]. The ratios of peptide to DNA were 0, 0.5, 1, 2.5, 5.0, and 10.0 (w/w). The mixtures were incubated for 10 min at 37 °C and then subjected to electrophoresis on a 0.7% agarose gel.
sequence,measurement,setting,value
"FKAWRWAWRMKKLAAPS [Lfcin4, 17-residue LfcinB17-31 derivative, Trp/Ala-containing]",time to permeabilization of the outer membrane (NPN fluorescence),S. aureus ATCC25923 [1],≤ 1 min
same,label incorporation into peptidoglycans (in words),S. aureus ATCC25923 [2],increased label incorporation into peptidoglycans
same,cell surface hydrophobicity,S. enteritidis CVCC3377,16.45%
same,cell surface hydrophobicity,S. aureus ATCC25923 [3],18.87%
same,PI-positive cells,S. aureus ATCC25923 [4]; 30 min,44.20%
same,PI-positive cells,S. aureus ATCC25923 [4]; 120 min,50.10%
same,MIC,E. coli CVCC1515,15 μM and 32 μg/ml
same,MIC,[5],15 μM and 32 μg/ml
same,time to permeabilization of the outer membrane (NPN fluorescence),S. enteritidis CVCC337,≤ 1 min
same,lung histology (in words),LPS-induced lung injury; 8 h‒4 d,apparently less lung damage
same,lung histology (in words),LPS-induced lung injury; 7 d,no obvious pathological differences
same,peptide:DNA mass ratio at which migration of genomic DNA is impaired,[6],greater than 2.5 mass ratio (peptide:DNA)
